The subject of one data set is human red blood cells. In words: Hemolytic activity on human red blood cells. To be noted: for HC50: 50% hemolysis of human red blood cells after 18 h at 37° C.; for HC50 Fold Decrease: same peptide with and without specificity determinants. On the procedure: For comparison, the inventors also determined the hemolytic activity after 18 hours at 37° C. Hemolysis can be determined with red blood cells (RBC) from various species including human red blood cells (hRBC).
The coupling procedure used 5 equivalents of Fmoc-D-amino acid or Fmoc-L-amino acid and HCTU (O-(1H-6-chlorobenzotriazole-1-yl)-1,1,3,3-tetramethyluronium hexafluorophosphate) and 6-Cl-HOBt (1-hydroxy-6-chloro-benztriazole) at 4.5 equivalents in DMF (Fisher Scientific, Denver, Colo.) and N-diisopropylethylamine (DIPEA) 10 equivalents (Oakwood Products, Inc., Estill, S.C.) in N-methyl-2-pyrrolidinone (NMP) (Fisher Scientific, Denver, Colo.) with the first and second couplings at room temperature for 30 min each. The deprotection procedure (removal of Fmoc protecting group) was carried out by treatment of the resin with 0.1 M HOBt (1-hydroxybenzotriazole) in DMF with 20% piperidine for 30 min. […] The resin was removed by filtration and peptide was precipitated with ice-cooled ethyl ether on ice for 15 min. Ether was decanted, the peptide was washed twice with ether and redissolved in acetonitrile/water (1:1, with 0.2% TFA) and the solution lyophilized to obtain the crude peptide. • Analytical and Preparative Purification by Reversed-Phase Chromatography: Analytical RP-HPLC: Column, Luna C18 (2), 250×4.6 mm I.D., 5 μm particle size, 100 Å pore size from Phenomenex (Torrance, Calif.). Run conditions: linear AB gradient (1% acetonitrile/min, starting from 2% acetonitrile) at a flow-rate of 1 ml/min, where eluent A is 0.2% aq. TFA and eluent B is 0.18% TFA in acetonitrile; temperature, 30° C. Preparative RP-HPLC: Peptides were dissolved in 0.2% aq. TFA containing 2% acetonitrile to a final concentration of 10 mg/ml. Following filtration through a 0.45 μm Millipore filter and subsequently through a 0.22 μm filter, the peptide solutions were loaded onto the column via multiple 20-ml injections into a 20-ml injection loop at a flow-rate of 10 ml/min. Column, Luna C18 (2), 250×30 mm I.D., 5 um particle size, 100 Å pore size from Phenomenex. Run conditions: 2% acetonitrile/min gradient up to an acetonitrile concentration 10% below that required to elute the peptide during analytical RP-HPLC, then shallow gradient elution (0.05% or 0.1% acetonitrile/min depending on the complexity of impurities near the product of interest on the analytical run of the crude peptide) at a flow-rate of 10 ml/min (same eluents as shown above for analytical RP-HPLC); at room temperature. • Temperature Profiling of Peptides on Reversed-phase HPLC to Measure Dimerization and Oligomerization: Purified peptides were analyzed on an Agilent 1200 series liquid chromatograph for temperature profiling using a Zorbax 300 SB-C8 column (150 mm×2.1 mm I.D.; 5 μm particle size, 300 Å pore size) from Agilent Technologies. […] Temperature profiling was carried out on peptide mixtures run at each temperature in 2° C. increments from 5° C. to 41° C. and 10° C. increments from 5° C. to 75° C. Twenty minutes was allowed between runs for temperature equilibration. • Characterization of Helical Structure: The mean residue molar ellipticities of peptides were determined by circular dichroism (CD) spectroscopy, using a Jasco J-815 spectropolarimeter (Jasco Inc. Easton, Md., USA) at 5° C. under KP buffer (50 mM NaH2PO4/Na2HPO4/100 mM KCl, pH 7.0) as well as in the presence of an α-helix inducing solvent, 2,2,2-trifluoroethanol, TFE, (50 mM NaH2PO4/Na2HPO4/100 mM KCl, pH 7.0 buffer/50% TFE). A 10-fold dilution of an approximately 500 μM stock solution of the peptide analogs was loaded into a 0.1 cm quartz cell and its ellipticity scanned from 195 to 250 nm.

Data set [1] can be described thus: Peptide self-association by temperature profiling in RP-HPLC. The format is physicochemical. To be noted: for PA: self-association parameter relative to random coil control peptide RC; for Tp: temperature at which maximum retention time is observed, 5-77° C. The protocol:
Retention behavior from eight AMPs after normalization to their retention times at 5° C. over the temperature range 5° C. to 41° C. in 2° C. increments or 5° C. to 75° C. in 10° C. increments (methodology details provided in Examples). […] Peptide denotions in FIG. 5 have been abbreviated from those shown in Table 1G; for example, D87(Lys1-6 Arg-1) has been shortened to D87(6 Arg-1). RC is a random coil control peptide used for RP-HPLC temperature profiling. The peptide self-association parameter, PA, represents the maximum change in peptide retention time relative to the random coil peptide, RC (PA values shown in Table 6). […] T., et al. J. Med. Chem. 2019, 62:3354-66.
Hemoglobin release was determined spectrophotometrically at 570 nm.
Peptide self-association, the ability to dimerize/oligomerize in aqueous solution, is a very important parameter to optimize antimicrobial activity and toxicity as measured by hemolytic activity. We have proposed that the monomeric random-coil antimicrobial peptides in aqueous solution are best suited to pass through a polysaccharide capsule, the outer membrane lipopolysaccharide and the cell wall peptidoglycan layer of Gram-negative bacteria prior to penetration into the cytoplasmic membrane, where there is induction of α-helical structure and disruption of membrane structure, cell leakage and death of bacterial cells. In contrast, if the self-association ability of an AMP in aqueous medium is too strong, stable folded dimers/oligomers are formed through interaction of their non-polar faces which decreases the ability of the AMP to dissociate to monomer and the dimer/oligomer to effectively pass through the capsule and cell wall to reach the cytoplasmic membrane. The ability of an AMP to self-associate was determined by a RP-HPLC technique developed in our laboratory, referred to as temperature profiling over the temperature range 5° C. to 80° C. […] These eight AMPs are compared to a random-coil control peptide denoted RC. […] This linear decrease in retention behavior with increasing temperature represents the general effects of temperature due to greater solute diffusivity and enhanced mass transfer between the mobile and stationary phases. The difference in retention time between an amphipathic α-helical antimicrobial peptide and the RC control peptide is a measure of the ability of a peptide to associate. The association parameter, PA is large for AMPs without specificity determinants (Ala 13 and Ala 16) ranging from 12.5 to 28.0 min (Table 6) and is shown by a black arrow in FIG. 5. The association parameter, PA, is dramatically smaller for AMPs with specificity determinants (Lys 13 and Lys 16 in the center of the non-polar face) and range from 0 to 6 min (Table 6). […]

Several values for one entry are separate records, joined by “and”; a condition that tells them apart may be missing. Identical values can stand only once.

The values below come from patent US20220105150A1, “AMPHIPATHIC ALPHA-HELICAL ANTIMICROBIAL PEPTIDES TREAT INFECTIONS BY GRAM-NEGATIVE PATHOGENS” (priority 2019, published 2022).

By HC50 is commonly meant the concentration that lyses half of the red blood cells. Regarding `CC(=O)N[C@H](CCCCN)C(=O)N[C@H](CC(C)C)C(=O)N[C@H](CCN)C(=O)N[C@H](CO)C(=O)N[C@H](CC(C)C)C(=O)N[C@H](CC(C)C)C(=O)N[C@H](CCN)C(=O)N[C@@H](C(=O)N[C@H](CC(C)C)C(=O)N[C@H](CO)C(=O)N[C@H](CCN)C(=O)N[C@H](C)C(=O)N[C@H](C)C(=O)N[C@H](C)C(=O)N[C@H](C)C(=O)N[C@H](C)C(=O)N[C@H](CC(C)C)C(=O)N[C@H](CCN)C(=O)N[C@@H](C(=O)N[C@H](CC(C)C)C(=O)N[C@H](CC(C)C)C(=O)N[C@H](CCN)C(=O)N[C@H](C)C(=O)N[C@H](CC(C)C)C(=O)N[C@H](CO)C(=O)N[C@H](CCN)C(N)=O)[C@H](C)O)[C@H](C)O` [D86(K13A/K16A)-(Lys^1-6Dab-1), Ac-KL(Dab)SLL(Dab)TLS(Dab)AAAAAL(Dab)TLL(Dab)ALS(Dab)-amide], in the data set on human red blood cells, the HC50 is 20.0 μg/mL and 7.7 μM; the “HC50 Fold Decrease” value is reported as >−96.4. In data set [1], this molecule registered a PA of 12.5 min and a Tp of 31.0 °C.
Turning to `CC(=O)N[C@H](CCCCN)C(=O)N[C@H](CC(C)C)C(=O)N[C@H](CN)C(=O)N[C@H](CO)C(=O)N[C@H](CC(C)C)C(=O)N[C@H](CC(C)C)C(=O)N[C@H](CN)C(=O)N[C@@H](C(=O)N[C@H](CC(C)C)C(=O)N[C@H](CO)C(=O)N[C@H](CN)C(=O)N[C@H](C)C(=O)N[C@H](C)C(=O)N[C@H](C)C(=O)N[C@H](C)C(=O)N[C@H](C)C(=O)N[C@H](CC(C)C)C(=O)N[C@H](CN)C(=O)N[C@@H](C(=O)N[C@H](CC(C)C)C(=O)N[C@H](CC(C)C)C(=O)N[C@H](CN)C(=O)N[C@H](C)C(=O)N[C@H](CC(C)C)C(=O)N[C@H](CO)C(=O)N[C@H](CN)C(N)=O)[C@H](C)O)[C@H](C)O` [D105(K13A/K16A)-(Lys^1-6Dap-1), Ac-KL(Dap)SLL(Dap)TLS(Dap)AAAAAL(Dap)TLL(Dap)ALS(Dap)-amide], in the data set on human red blood cells, the HC50 is 7.2 μg/mL and 2.9 μM; the “HC50 Fold Decrease” value was >−395.9. In data set [1], this molecule displayed a PA of 18.0 min and a Tp of 39.0 °C.
